Results from patent publication US6900194B1, “Use of substituted 4-biarylbutyric and 5-biarylpentanoic acid derivatives as matrix metalloprotease inhibitors for the treatment of respiratory diseases” (Bayer Aktiengesellschaft, priority 1998, dated 2005).

How the values were obtained:
Format in all cases: biochemical
MMP-7 (Matrilysin) = target: T1, MMP-7 (Matrilysin) (Homo sapiens, UniProt P09237); assay: P218 quenched fluorescence assay, MMP-7
T1 construct: Catalytic domain expressed in E. coli using the pET 14 vector, provided by Dr Steve Shapiro; host or cells: E. coli
T1 sequence (P09237 95-267): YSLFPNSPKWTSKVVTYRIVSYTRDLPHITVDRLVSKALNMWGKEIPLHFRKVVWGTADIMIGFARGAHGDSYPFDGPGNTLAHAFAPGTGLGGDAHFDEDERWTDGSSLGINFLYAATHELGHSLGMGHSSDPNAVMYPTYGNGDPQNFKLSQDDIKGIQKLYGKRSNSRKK
From the text: (§1) P218 Quenched Fluorescence Assay for MMP Inhibition:
(§2) This assay is adapted from the one described by Knight et al., FEBS Letters, 296, 263-266 (1992) for MMP-3 and a related substrate. The rate of hydrolysis of the synthetic substrate H-MCA-Pro-Lys-Pro-Leu-Ala-Leu-DPA-Ala-Arg-NH2 (P218) by the respective MMPs is monitored fluorometrically, using an excitation wavelength of 340 nm and an emission wavelength of 395 nm, in the presence or absence of the test compounds. The substrate is made up initially in 100% DMSO to a concentration of 1×10^−2 M, then diluted in assay buffer to a final concentration of 20 μM. […] The total assay volume in a 96 well microtitre plate is 150 μl, Cleavage of the substrate between the Leu-Ala residues allows the fluorescence of the MCA group to be detected on a fluorometer (Cytofluor II) following excitation at 340 nm and emission at 395 nm. Change in fluorescence is continually monitored for a 40 min period.
(§3) The Ki's are calculated using the method described by Williams and Morrison, Methods in Enzymology, 63, 437-467 (1979) to measure Ki apparent for tight binding inhibitors, and is summarised as follows: [I]0/(1−vi/v0)=Ki apparent ×vi/v0+[E]0 [I]0 and [E]0 are inhibitor and enzyme concentrations, and vi/v0 are reaction velocities with/without inhibitor. […]
(§4) IC50's are determined at each enzyme concentration using Xlfit software. […]

MMP-9 (Gelatinase B) = target: T2, MMP-9 (Gelatinase B) (Homo sapiens, UniProt P14780); assay: P218 quenched fluorescence assay, MMP-9; conditions: read-out: Potency Ki vs. MMP-9
T2 construct: polymorphonuclear leukocytes (PMN) preparations are isolated as described above from 3 or more units of freshly drawn whole blood; from tissue; host or cells: polymorphonuclear leukocytes from whole blood, stimulated with PMA; supernatant purified
T2 sequence (P14780 94-707): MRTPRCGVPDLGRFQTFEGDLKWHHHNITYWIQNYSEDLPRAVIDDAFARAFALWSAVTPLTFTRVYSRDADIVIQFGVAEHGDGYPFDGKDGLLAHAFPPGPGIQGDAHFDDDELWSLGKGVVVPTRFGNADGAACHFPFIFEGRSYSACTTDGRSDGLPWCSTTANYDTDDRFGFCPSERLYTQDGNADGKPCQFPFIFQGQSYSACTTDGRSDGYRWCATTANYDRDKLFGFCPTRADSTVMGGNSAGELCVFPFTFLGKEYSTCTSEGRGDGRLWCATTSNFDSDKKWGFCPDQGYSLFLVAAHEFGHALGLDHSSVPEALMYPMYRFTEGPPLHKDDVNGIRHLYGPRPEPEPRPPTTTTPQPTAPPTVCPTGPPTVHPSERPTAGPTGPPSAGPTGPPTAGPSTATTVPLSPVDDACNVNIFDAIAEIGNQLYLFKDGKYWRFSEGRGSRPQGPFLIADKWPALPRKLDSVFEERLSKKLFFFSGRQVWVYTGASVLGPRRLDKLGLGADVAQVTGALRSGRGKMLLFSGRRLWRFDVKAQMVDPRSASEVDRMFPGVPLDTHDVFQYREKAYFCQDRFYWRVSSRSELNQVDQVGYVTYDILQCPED
From the text: as §1, §2, §3, §4

[1] = target: MMP-13 (Human Collagenase 3) (Homo sapiens, UniProt P45452); assay: P218 quenched fluorescence assay, MMP-13 (human)
From the text: as §1, §2, §3, §4

Rat MMP-13 = target: T3, Rat MMP-13 (Rattus norvegicus, UniProt P23097); assay: P218 quenched fluorescence assay, MMP-13 (rat); conditions: read-out: IC50 vs. MMP-13 (value marked *)
T3 construct: Rat pro-MMP-13 was obtained according to the protocol of Roswit, Arch; Biochem. Biophys
From the text: as §1, §2, §3, §4

Compound: CCOc1ccc(-c2ccc(C(=O)CC(CCN3C(=O)c4ccccc4C3=O)C(=O)O)cc2)cc1 (single isomer, unassigned; (+)) [Example 2, (+)-2-[2-(1,3-Dioxo-1,3-dihydro-2H-isoindol-2-yl)ethyl]-4-(4′-ethoxy[1,1′-biphenyl]-4-yl)-4-oxobutanoic acid]
- inhibition at 0.03 µM (MMP-7 (Matrilysin); at 30 nM, read-out: % inh. of MMP-7): 38%
- Ki (MMP-9 (Gelatinase B)): 1.2 nM
- IC50 ([1]; read-out: IC50 vs. MMP-13 (value marked *)): 70 nM
- IC50 (Rat MMP-13): 69 nM

Compound: O=C(CC(CCN1C(=O)c2ccccc2C1=O)C(=O)O)c1ccc(-c2ccc(Cl)cc2)cc1 (single isomer, unassigned; (+)) [Example 4, (+)-4-(4′-Chloro[1,1′-biphenyl]4-yl)-2-[2-(1,3-dioxo-1,3-dihydro-2H-isoindol-2-yl)ethyl]-4-oxobutanoic acid]
- Ki (MMP-7 (Matrilysin); read-out: Potency Ki vs. MMP-7): > 3000 nM
- Ki (MMP-9 (Gelatinase B)): 0.7 nM
- Ki ([1]; read-out: Potency Ki vs. MMP-13): 5.6 nM
- IC50 (Rat MMP-13): 296 nM
